This passage reports IC50 results from patent publication US6281356A, “Substituted pyrroles” (Hoffmann-La Roche Inc., priority 2000, dated 2001).

The test relates to epithelial breast carcinoma cell line (MDAMB-435). The test is described as follows: Antiproliferative activity (growth inhibition, MTT), epithelial breast carcinoma cell line MDAMB-435. It is filed as cell-based. To be noted: Homo sapiens, MDA-MB-435, 120 h, 5 days post drug addition, 0.1% DMSO, read-out: IC50 (growth inhibition of MDAMB-435 cells). The procedure:
The epithelial breast carcinoma cell line (MDAMB-435) was purchased from ATCC (American Type Cell Culture Collection) and was grown in culture medium as recommended by ATCC. For analysis of the effect of various compounds of formula I on the growth of these cells, the cells were plated at a concentration of 1500 cells/well in a 96 well tissue culture plate ("test plate"). The day after the cells were plated, the compounds to be analyzed were dissolved in 100% DMSO (dimethyl sulfoxide) to yield at 10 mM stock solution. Each compound was diluted in H2 O to 1 mM and was added to triplicate wells in the first row of a 96 well master plate containing medium to yield a final concentration of 40 μM. The compounds were then serially diluted in medium in the "master plate". The diluted compound(s) were then transferred to test plates containing cells. A row of vehicle "control cells" received DMSO. The final concentration of DMSO in each well was 0.1%. 5 days post drug addition, the plate was analyzed as described below.
MTT (3-(4-5 methyl thiazole-2-yl)-2,5-diphenyl tetrazolium bromide; thiazolyl blue) was added to each well to yield a final concentration of 1 mg/ml. The plate was then incubated at 37° C. for 21/2-3 hours. The MTT-containing medium was then removed and 50 μl of 100% ethanol was added to each well to dissolve the formazan. The absorbences were then read using an automated plate reader (Bio-tek microplate reader). IC50 s were calculated using the Reed and Munsch equation, see Am. J. Hygiene Vol. 27 pgs. 493-497,1938.
On to `Cn1cc(C2=C(c3cn(C)c4cc(-n5cccn5)ccc34)C(=O)NC2=O)c2ccc(Br)cc21` [Example 8e, 3-(6-Bromo-1-methyl-1H-indol-3-yl)-4-(1-methyl-6-pyrazol-1-yl-1H-indol-3-yl)pyrrole-2,5-dione], for which the IC50 – broadly, the concentration that gives 50% inhibition – amounted to 25 nM. With `Cn1cc(C2=C(c3c[nH]c4cc(N5CCOCC5)ccc34)C(=O)NC2=O)c2ccc(F)cc21` [Example 12n, 3-(6-Fluoro-1-methyl-1H-indol-3-yl)-4-(6-morpholin-4-yl-1H-indol-3-yl)-pyrrole-2,5-dione], the IC50 was 12 nM.

In the case of `Cn1cc(C2=C(c3cn(C)c4cc(-c5ncc[nH]5)ccc34)C(=O)NC2=O)c2ccccc21` [Example 2e, 3-[6-(1H-Imidazol-2-yl)-1-methyl-1H-indol-3-yl]-4-(1-methyl-1H-indol-3-yl)pyrrole-2,5-dione], the IC50 is 80 nM. The result for `Cn1nccc1-c1ccc2c(C3=C(c4cn(C)c5ccccc45)C(=O)NC3=O)cn(C)c2c1` [Example 2k, 3-(1-Methyl-1H-indol-3-yl)-4-[1-methyl-6-(2-methyl-2H-pyrazol-3-yl)-1H-indol-3-yl]pyrrole-2,5-dione] reads 250 nM. Turning to `Cn1cc(C2=C(c3cn(C)c4cc(N5CCCC5)ccc34)C(=O)NC2=O)c2ccc(C#N)cc21` [Example 15, 1-Methyl-3-[4-(1-methyl-6-pyrrolidin-1-yl-1H-indol-3-yl)-2,5-dioxo-2,5dihydro-1H-pyrrole-3-yl]-1H-indole-6-carbonitrile], the IC50 was below 10 nM. For `Cn1cc(C2=C(c3c[nH]c4ccccc34)C(=O)NC2=O)c2ccc(N3CCOCC3)cc21` [Example 12c, 3-(1H-Indol-3-yl)-4-(1-methyl-6-morpholin-4-yl-1H-indol-3-yl)pyrrole-2,5-dione], the IC50 was 70 nM. As for `COc1ccc2c(C3=C(c4cn(C)c5cc(-c6cncn6C)ccc45)C(=O)NC3=O)cn(C)c2c1` [Example 2b, 3-(6-Methoxy-1-methyl-1H-indol-3-yl)-4-[1-methyl-6-(3-methyl-3H-imidazol-4-yl)-1H-indol-3-yl]pyrrole-2,5-dione], the IC50 came out at 60 nM. Regarding `COc1ccc2c(C3=C(c4cn(C)c5cc(N6CCOCC6)ccc45)C(=O)NC3=O)cn(C)c2c1` [Example 14a, 3-(6-Methoxy-1-methyl-1H-indol-3-yl)-4-(1-methyl-6-morpholin-4-yl-1H-indol-3-yl)pyrrole-2,5-dione], the IC50 came to 20 nM.
